Four molecules from patent publication US20080020385A1, “Use Of A Genetic Modification In The Human Gnaq Gene For Predicting Risk Of Disease, The Course Of Disease, And Reaction To Treatments” (priority 2004, published 2008) can be followed below.

The test system of experiment [1] is human adipocytes. Description: Inhibition of isoprenaline-induced lipolysis (glycerol release) in human adipocyte cultures. The class given is cell-based. Particulars: human adipocytes ex vivo, by GC(-909/-908)TT genotype. An excerpt: The inhibiting effect of insulin on lipolysis was studied in human adipocyte cultures. For this, lipolysis was induced ex vivo in human adipocytes by isoprenaline, and the inhibiting effect of insulin was studied by adding insulin to the cultures. Lipolysis was quantified by glycerol release (Hauner et al., 2002). […] This coincides with the observation of an increased gene expression of Gq in this genotype.

For experiment [2], the system named is GNAQ promoter. Description: SEAP reporter assay of GNAQ promoter construct -798/+89 (GC or TT genotype) in stimulated HEK cells. The class given is cell-based, human. Particulars: construct -798/+89, stimulation with 10 nM angiotensin II, p<0.05. An excerpt: For functional detection of a modified promoter activity in relation to specific genotypes, various fragments of the promoter with the GC or the TT genotype were cloned into the pSEAP vector to quantify the promoter activity after expression of the vector in HEK cells in a so-called reporter assay (FIG. 5). For this assay, constructs are cloned before a gene encoding the secreted alkaline phosphatase (SEAP). If the construct has promoter activity, the SEAP gene will be transcribed more, and the increased secretion of alkaline phosphatase into the cell culture medium can be measured. […] Since the polymorphism is located in this region (−697/−695 relative from the transcription starting point) showing the highest reporter activity, and furthermore a transcription factor binding site is influenced by the nucleic acid exchange, it is now studied if stimulation of HEK cells has an effect on the reporter activity of these constructs. For this, construct −798/+89 was transfected into HEK cells, together with either the GC(−909/−908) or the TT(−909/−908) polymorphism, and the cells were stimulated with serum or angiotensin II (FIG. 6). […] In order to verify if this regulation also occurs in vivo, Gαq expression was analyzed on mRNA level by real time-PCR.
In general terms: Reporter assays use an easily measured gene product as a stand-in for the process of interest.

For experiment [3], the system named is skin blood circulation. Description: Change of skin blood circulation after injection of vasoconstrictors under the skin. The conditions noted are these: injected under the skin of human individuals, by GC(-909/-908)TT genotype. The experiment is classed as in vivo. On the procedure: As an example for the general usability of the GNAQ GC(−909/−908)TT polymorphism to predict drug actions, the vasoconstrictors angiotensin II, noradrenaline or endothelin were injected under the skin of human individuals, and the following change of blood circulation was recorded (FIG. 18).

In the case of insulin, in experiment [1], the “inhibiting effect on isoprenaline-induced lipolysis (glycerol release)” value is listed as “inhibiting insulin effect was strongest with adipocytes from individuals with GCGC genotype”.

On to “angiotensin II (DRVYIHPF; Angiotensin-2; UniProt P01019 25-32, looked up) [hormone, vasoconstrictor]”, for which, in experiment [2], the “promoter activity (secreted alkaline phosphatase), GC genotype compared to TT genotype” value is “two to four times increased promoter activity compared to the TT genotype”. In addition, in experiment [3], the “reduction of skin blood circulation” value is on record as “reduction of skin blood circulation is highest for the GC/GC genotype”.

As to `CC[C@H](C)[C@H](NC(=O)[C@H](CC(=O)O)NC(=O)[C@H](CC(C)C)NC(=O)[C@H](Cc1c[nH]cn1)NC(=O)[C@@H]1CSSC[C@H](N)C(=O)N[C@@H](CO)C(=O)N[C@H]2CSSC[C@H](NC(=O)[C@H](CCC(=O)O)NC(=O)[C@H](CCCCN)NC(=O)[C@H](CC(=O)O)NC(=O)[C@H](CCSC)NC(=O)[C@H](CC(C)C)NC(=O)[C@H](CO)NC(=O)[C@H](CO)NC2=O)C(=O)N[C@@H](C(C)C)C(=O)N[C@@H](Cc2ccc(O)cc2)C(=O)N[C@@H](Cc2ccccc2)C(=O)N1)C(=O)N[C@H](C(=O)N[C@@H](Cc1c[nH]c2ccccc12)C(=O)O)[C@@H](C)CC` [endothelin], the “reduction of skin blood circulation” value in experiment [3] is “reduction of skin blood circulation is highest for the GC/GC genotype”.

As for `NC[C@H](O)c1ccc(O)c(O)c1` [noradrenaline], the “reduction of skin blood circulation” value in experiment [3] is recorded as “reduction of skin blood circulation is highest for the GC/GC genotype”.
